For orientation: IC50 means the concentration needed to halve the response being measured. The low end stands for higher potency, the high end for lower potency.

This note sets out measurements from ChEMBL document CHEMBL6083195, “Cornulacin: a new isoflavone from Cornulaca monacantha and its isolation, structure elucidation and cytotoxicity through EGFR-mediated apoptosis” (RSC Med Chem, 2024).

Experiment [1] deals with A2780. In words: Cytotoxicity against human A2780 cells by MTT assay. Format: functional, cell-based. For orientation: Tetrazolium assays rely on reduction of a dye to a coloured formazan, in cell work by metabolically active cells.
For a further experiment, the system named is PANC-1. As to the kind of experiment: Cytotoxicity against human PANC-1 cells by MTT assay. Format: functional, cell-based.
The test system of experiment [2] is A2780. In words: Induction of apoptosis in human A2780 cells assessed as late apoptotic cells at IC50 incubated for 48 hrs by Annexin V-FITC/PI staining based flow cytometry (reference value: 0.23 %). In kind it is functional. For orientation: A flow cytometer gives signals particle by particle.
Experiment [3] concerns A2780. In words: Induction of apoptosis in human A2780 cells assessed as fold increase in Bax mRNA level at IC50 incubated for 48 hrs by RT-PCR analysis relative to control. Format: functional.
Experiment [4] concerns A2780. As to the kind of experiment: Induction of apoptosis in human A2780 cells assessed as fold increase in caspase-8 mRNA level at IC50 incubated for 48 hrs by RT-PCR analysis relative to control. In kind it is functional.
For experiment [5], the system named is A2780. As to the kind of experiment: Induction of apoptosis in human A2780 cells assessed as fold decrease in Bcl-2 mRNA level at IC50 incubated for 48 hrs by RT-PCR analysis relative to control. Format: functional.
Experiment [6] relates to A2780. As to the kind of experiment: Induction of apoptosis in human A2780 cells assessed as necrotic cells at IC50 incubated for 48 hrs by Annexin V-FITC/PI staining based flow cytometry (reference value: 1.52 %). In kind it is functional.
The test system of experiment [7] is A2780. In words: Induction of cell cycle arrest in human A2780 cells assessed as accumulation at G2/M phase at IC50 incubated for 48 hrs by flow cytometry (reference value: 27.5 %). Format: functional.
Experiment [8] deals with A2780. In words: Induction of cell cycle arrest in human A2780 cells assessed as accumulation at S phase at IC50 incubated for 48 hrs by flow cytometry (reference value: 30.6 %). Format: functional.
Experiment [9] relates to A2780. In words: Induction of apoptosis in human A2780 cells assessed as total apoptotic cell death at IC50 incubated for 48 hrs by Annexin V-FITC/PI staining based flow cytometry (reference value: 0.955 %). In kind it is functional.
In experiment [10] the test system is A2780. As to the kind of experiment: Induction of apoptosis in human A2780 cells assessed as fold increase in caspase-3 mRNA level at IC50 incubated for 48 hrs by RT-PCR analysis relative to control. Format: functional.
The subject of experiment [11] is A2780. As to the kind of experiment: Induction of apoptosis in human A2780 cells assessed as fold increase in caspase-9 mRNA level at IC50 incubated for 48 hrs by RT-PCR analysis relative to control. Format: functional.
A further experiment relates to WISH. In words: Cytotoxicity against human WISH cells by MTT assay. Format: functional, cell-based.
In experiment [12] the test system is A2780. As to the kind of experiment: Induction of apoptosis in human A2780 cells assessed as fold increase in P53 mRNA level at IC50 incubated for 48 hrs by RT-PCR analysis relative to control. Format: functional.
Experiment [13] has as its system A2780. As to the kind of experiment: Induction of apoptosis in human A2780 cells assessed as early apoptotic cells at IC50 incubated for 48 hrs by Annexin V-FITC/PI staining based flow cytometry (reference value: 0.72 %). Format: functional.
In experiment [14] the test system is A2780. In words: Induction of cell cycle arrest in human A2780 cells assessed as accumulation at G1 phase at IC50 incubated for 48 hrs by flow cytometry (reference value: 41.8 %). In kind it is functional.
A further experiment deals with KB. As to the kind of experiment: Cytotoxicity against human KB cells. In kind it is functional, cell-based.

With `O=C(/C=C/c1ccc(O)c(O)c1)NCCc1ccc(O)cc1`, the IC50 worked out at 11.2 µM in the experiment on A2780 [1] and 7.2 µM with PANC-1.
The corresponding values for `COc1cc([C@H]2c3cc(O)c(OC)cc3/C(=C\C(=O)NCCc3ccc(O)cc3)[C@H]2C(=O)NCCc2ccc(O)cc2)ccc1O` are 31.2 µM and 24.1 µM.
The like results for `C#Cc1cccc(Nc2ncnc3cc(OCCOC)c(OCCOC)cc23)c1` [ERLOTINIB] were, in that order, 1.13 µM and 2.17 µM.
The corresponding values for `COc1cc(/C=C(\Oc2ccc(/C=C/C(=O)NCCc3ccc(O)cc3)cc2OC)C(=O)NCCc2ccc(O)cc2)ccc1O` are 25.1 µM and 19.3 µM.
In the case of `COc1cc(/C=C/C(=O)NCCc2ccc(O)c(OC)c2)ccc1O`, the IC50 with A2780 [1] is 2.9 µM; with PANC-1, 7 µM.
With `COCc1c(O)cc2occ(-c3ccccc3O)c(=O)c2c1OC`, the Activity in the experiment on A2780 [2] amounted to 14.48%; in the experiment on A2780 [6], 7.54%; with A2780 [7], 10.48%; in the experiment with A2780 [8] it was 43.3%; with A2780 [9] it was 43.65%; in the experiment on A2780 [13], 29.17%. Moreover, in the experiment on A2780 [14], the Activity is given as 46.2%. Also, the “fold change (FC)” value with A2780 [3] turned out to be 5.4; in the experiment with A2780 [4], 6.09; in the experiment on A2780 [5], 0.3; in the experiment with A2780 [10], 8.1; in the experiment with A2780 [11] it was 8.08; in the experiment on A2780 [12], 6.7. The IC50 is 2.1 µM in the experiment on A2780 [1], 6.4 µM in the experiment on PANC-1 and at least 100 µM in the experiment with WISH.
`COc1cc(OC)c(-c2coc3c4c(c(OC)cc3c2=O)OC(C)(C)C=C4)cc1OC`: the IC50 in the experiment on KB was 2000 nM.
As for `COc1cc(/C=C/C(=O)NCCc2ccc(O)cc2)ccc1O` [N-TRANS-FERULOYL TYRAMINE], the IC50 with A2780 [1] stood at 9.1 µM; with PANC-1, 3.4 µM.
